Read-outs that look alike come from different tables or passages of the source.
Columns and labels:
[1] = monkeys; preclinical; cited from earlier work
[2] = First-in-human trial: pharmacokinetics in plasma and urine; format: in vivo; settings: for AUC(0-inf) / Cmax / half-life / AUC(0-t): human, plasma, oral, median (range); for half-life: read-out: T1/2 (converted); for AUC(0-t): read-out: AUC24hr
Experimental: Blood and urine samples were collected at prespecified time points for 24 h after initial dose and at days 2–3 (S2) and after multiple doses on days 3–4 (S1) and 22–23 (S3) across dose levels. Predose samples were collected on days 8, 15 and 22. Urine samples were collected during cycle 1.
Descriptive statistics were used to summarise the safety data, including all patients who received at least one dose of OSI-027. All patients who completed the pharmacokinetic sampling were included in the PK analyses, which used descriptive statistics to summarise AUC0–∞, AUC0–t, Cmax, Clast, Tmax, Tlast, %AUC extrapolated, T1/2, clearance (Cl/F) and volume of distribution (Vz/F). Exploratory analysis were planned to correlate pharmacodynamics and pharmacokinetics. Response to treatment was evaluated according to Response Evaluation Criteria in Solid Tumors (RECIST) ([Therasse et al, 2000]).

[3] = 5 mg, Schedule 3, 5 mg, Day 1, N=3
[4] = 5 mg, Schedule 3, 5 mg, Day 22, N=3
[5] = 10 mg, Schedule 1, 10 mg, Day 1, N=6
[6] = 10 mg, Schedule 1, 10 mg, Day 3, N=6
[7] = 10 mg, Schedule 3, 10 mg, Day 1, N=3
[8] = 10 mg, Schedule 3, 10 mg, Day 22, N=3
[9] = 15 mg, Schedule 1, 15 mg, Day 1, N=4
[10] = 15 mg, Schedule 1, 15 mg, Day 3, N=4
[11] = 20 mg, Schedule 1, 20 mg, Day 1, N=4
[12] = 20 mg, Schedule 1, 20 mg, Day 3, N=4
[13] = 20 mg, Schedule 3, 20 mg, Day 1, N=6
[14] = 20 mg, Schedule 3, 20 mg, Day 22, N=5
[15] = 25 mg, Schedule 3, 25 mg, Day 1, N=3
[16] = 25 mg, Schedule 3, 25 mg, Day 22, N=3
[17] = 30 mg, Schedule 1, 30 mg, Day 1, N=3
[18] = 30 mg, Schedule 1, 30 mg, Day 3, N=3
[19] = 35 mg, Schedule 3, 35 mg, Day 1, N=4
[20] = 35 mg, Schedule 3, 35 mg, Day 22, N=4

In the case of `COc1cccc2cc(-c3nc([C@H]4CC[C@H](C(=O)O)CC4)n4ncnc(N)c34)[nH]c12` [OSI-027], the “maximum tolerated dose (MTD) in toxicology studies” value [1] is listed as 2.5 mg kg^−1 per day, the accumulation ([2]; after once daily / continuous dosing) is listed as “minimal accumulation” and the AUC(0-inf) [2, 3] is listed as 2140 ng·h/mL. The Cmax [2, 3] was 236 ng/mL, the half-life [2, 3] was 7.89 h and the Cmax [2, 4] was 266 ng/mL. For the same molecule, the AUC(0-t) [2, 4] was 2040 ng·h/mL, the half-life [2, 4] was 6.85 h and the AUC(0-inf) [2, 5] was 5130 ng·h/mL. The Cmax [2, 5] was 646 ng/mL, the half-life [2, 5] was 5.98 h and the Cmax [2, 6] was 602 ng/mL. The AUC(0-t) [2, 6] was 4860 ng·h/mL, the half-life [2, 6] was 7.74 h and the AUC(0-inf) ([2]; 10 mg, Schedule 2, 10 mg, N=4) was 5530 ng·h/mL. For the same molecule, the Cmax ([2]; 10 mg, Schedule 2, 10 mg, N=4) was 705 ng/mL, the half-life ([2]; 10 mg, Schedule 2, 10 mg, N=4) was 12.3 h and the AUC(0-inf) [2, 7] was 4300 ng·h/mL. The Cmax [2, 7] was 547 ng/mL, the half-life [2, 7] was 7.24 h and the Cmax [2, 8] was 457 ng/mL. It also gave an AUC(0-t) [2, 8] of 3720 ng·h/mL, a half-life [2, 8] of 6.54 h and an AUC(0-inf) [2, 9] of 8460 ng·h/mL. It also gave a Cmax [2, 9] of 1170 ng/mL, a half-life [2, 9] of 7.12 h and a Cmax [2, 10] of 1270 ng/mL. The AUC(0-t) [2, 10] was 9210 ng·h/mL, the half-life [2, 10] was 7.69 h and the AUC(0-inf) ([2]; 15 mg, Schedule 2, 15 mg, N=7) was 25900 ng·h/mL. The Cmax ([2]; 15 mg, Schedule 2, 15 mg, N=7) was 894 ng/mL, the half-life ([2]; 15 mg, Schedule 2, 15 mg, N=7) was 19.3 h and the AUC(0-inf) [2, 11] was 5780 ng·h/mL. It also gave a Cmax [2, 11] of 804 ng/mL, a half-life [2, 11] of 5.09 h and a Cmax [2, 12] of 1350 ng/mL. It also gave an AUC(0-t) [2, 12] of 5850 ng·h/mL, a half-life [2, 12] of 5.97 h and an AUC(0-inf) ([2]; 20 mg, Schedule 2, 20 mg, N=3) of 9840 ng·h/mL. For the same molecule, the Cmax ([2]; 20 mg, Schedule 2, 20 mg, N=3) was 1240 ng/mL, the half-life ([2]; 20 mg, Schedule 2, 20 mg, N=3) was 7.65 h and the AUC(0-inf) [2, 13] was 9460 ng·h/mL. It also gave a Cmax [2, 13] of 1300 ng/mL, a half-life [2, 13] of 7.03 h and a Cmax [2, 14] of 1540 ng/mL. For the same molecule, the AUC(0-t) [2, 14] was 13700 ng·h/mL, the half-life [2, 14] was 9.67 h and the AUC(0-inf) [2, 15] was 25100 ng·h/mL. The Cmax [2, 15] was 1640 ng/mL, the half-life [2, 15] was 11.1 h and the Cmax [2, 16] was 1790 ng/mL. The AUC(0-t) [2, 16] was 15200 ng·h/mL, the half-life [2, 16] was 15 h and the AUC(0-inf) [2, 17] was 45100 ng·h/mL. For the same molecule, the Cmax [2, 17] was 3620 ng/mL, the half-life [2, 17] was 11.3 h and the Cmax [2, 18] was 2120 ng/mL. For the same molecule, the AUC(0-t) [2, 18] was 37800 ng·h/mL, the half-life [2, 18] was 10 h and the AUC(0-inf) [2, 19] was 20200 ng·h/mL. For the same molecule, the Cmax [2, 19] was 1590 ng/mL, the half-life [2, 19] was 7.24 h and the Cmax [2, 20] was 2300 ng/mL. The AUC(0-t) [2, 20] was 31200 ng·h/mL, the half-life [2, 20] was 11.1 h and the AUC(0-inf) ([2]; 40 mg, Schedule 2, 40 mg, N=3) was 28600 ng·h/mL. The Cmax ([2]; 40 mg, Schedule 2, 40 mg, N=3) was 2510 ng/mL.

From publication PMC4984800, “A first in man, dose-finding study of the mTORC1/mTORC2 inhibitor OSI-027 in patients with advanced solid malignancies” (British Journal of Cancer, 2016)
